The source of these data is patent US6656906B1, “Hybrid polypeptides with enhanced pharmacokinetic properties” (Trimeris, Inc., priority 1998, dated 2003).

A short description of the data set: Rat pharmacokinetic studies, IV, fluorescence HPLC of plasma. The format is in vivo, CD rats. The following applies: IV, male CD rats. As to the method:
250-300 g male CD rats, double jugular catheter, obtained from Charles River Laboratories were used. Peptides were injected in one jugular catheter in a volume of 200 μl of peptide solution (approximately 3.75 mg/ml), dosing solution concentration was determined using the Edelhoch method, (Edelhoch, 1967, Biochemistry 6:1948-1954) method and adjusted based on animal weight such that each animal received a dose of 2.5 mg/kg). Approximately 250-300 μl of blood was removed at predetermined time intervals (0, 15, 30 min and 1, 2, 4, 6, and 8 hours) and added to EDTA capiject tubes. Plasma was removed from pelleted cells upon centrifugation and either frozen or immediately processed for fluorescence HPLC analysis.
100 μl of sample plasma was added to 900 μl of precipitation buffer (acetonitrile, 1.0% TFA, detergent) resulting in precipitation of the majority of plasma proteins. Following centrifugation at 10,000 rpm for 10 min, 400 μl of the supernatant was removed and added to 600 μl of HPLC grade water. Serial dilutions were performed as dictated by concentration of peptide present in each sample in dilution buffer comprised of 40% precipitation buffer and 60% HPLC water. In addition to sample dilutions, serial dilutions of dosing solution were performed in buffer as well as in plasma and used to generate a standard curve relating peak area to known concentration of peptide. This curve was then used to calculate concentration of peptide in plasma taking into account all dilutions performed and quantity injected onto column.

For the molecule `CC[C@H](C)[C@H](NC(=O)[C@H](CCC(N)=O)NC(=O)[C@H](C)NC(=O)[C@H](CCC(N)=O)NC(=O)[C@H](CCC(=O)O)NC(=O)[C@H](CC(C)C)NC(=O)[C@H](CC(C)C)NC(=O)[C@H](C)NC(=O)[C@@H](NC(=O)[C@@H](NC(=O)[C@H](CCCCN)NC(=O)[C@H](CCC(N)=O)NC(=O)[C@H](CCC(=O)O)NC(=O)[C@H](Cc1c[nH]c2ccccc12)NC(=O)[C@H](CCC(=O)O)NC(=O)[C@H](CCC(N)=O)NC(=O)[C@H](Cc1c[nH]c2ccccc12)NC(C)=O)[C@@H](C)CC)[C@@H](C)O)C(=O)N[C@@H](CCC(N)=O)C(=O)N[C@@H](CCC(N)=O)C(=O)N[C@@H](CCC(=O)O)C(=O)N[C@@H](CCCCN)C(=O)N[C@@H](CC(N)=O)C(=O)N[C@@H](CCC(=O)O)C(=O)N[C@@H](Cc1ccc(O)cc1)C(=O)N[C@@H](CCC(=O)O)C(=O)N[C@@H](CC(C)C)C(=O)N[C@@H](CCC(N)=O)C(=O)N[C@@H](CCCCN)C(=O)N[C@@H](CC(C)C)C(=O)N[C@@H](CC(=O)O)C(=O)N[C@@H](CCCCN)C(=O)N[C@@H](Cc1c[nH]c2ccccc12)C(=O)N[C@@H](C)C(=O)N[C@@H](CO)C(=O)N[C@@H](CC(C)C)C(=O)N[C@@H](Cc1c[nH]c2ccccc12)C(=O)N[C@@H](CCC(=O)O)C(=O)N[C@@H](Cc1c[nH]c2ccccc12)C(=O)N[C@@H](Cc1ccccc1)C(N)=O` [T1249], the “beta-phase half-life relative to T20” value is recorded as “nearly three times greater than T20” and the “total AUC relative to T20” value is recorded as “nearly three times greater than T20”.
